Assay results: PubChem BioAssay AID256 (DTP/NCI, 2004)
“And” between values parts separate entries of the source, which are not always exact repeats. Equal entries are not always repeated. Inconclusive results and toxic doses are left out. How the source made its calls: active means survival T/C of 150% or more; inactive means T/C below 125% in these data.

System: CD2F1 mice, L1210 leukemia ip, survival T/C
Test: NCI In Vivo Anticancer Drug Screen. Data for tumor model L1210 Leukemia (intraperitoneal) in CD2F1 (CDF1) mice
Conditions: higher = longer survival
Summary of the method: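 Activity against a transplanted murine tumor was judged by comparing the compound group with a vehicle group. The outcome in the treated animals was divided by that in the controls.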

[1] = endpoint: mean survival time, dose: 100.0 mg/kg/injection, schedule: Q04DX003 (ip), vehicle: other
[2] = endpoint: mean survival time, dose: 200.0 mg/kg/injection, schedule: Q04DX003 (ip), vehicle: other
[3] = endpoint: mean survival time, dose: 100.0 mg/kg/injection, schedule: Q04DX002 (ip), vehicle: saline with Tween-80
[4] = endpoint: mean survival time, dose: 200.0 mg/kg/injection, schedule: Q04DX002 (ip), vehicle: saline with Tween-80
[5] = endpoint: mean survival time, dose: 400.0 mg/kg/injection, schedule: Q04DX002 (ip), vehicle: saline with Tween-80
[6] = endpoint: mean survival time, dose: 100.0 mg/kg/injection, schedule: Q01DX009 (ip), vehicle: saline with Tween-80
[7] = endpoint: mean survival time, dose: 100.0 mg/kg/injection, schedule: Q04DX003 (ip), vehicle: saline with Tween-80
[8] = endpoint: mean survival time, dose: 200.0 mg/kg/injection, schedule: Q01DX009 (ip), vehicle: saline with Tween-80
[9] = endpoint: mean survival time, dose: 200.0 mg/kg/injection, schedule: Q04DX003 (ip), vehicle: saline with Tween-80
[10] = endpoint: mean survival time, dose: 400.0 mg/kg/injection, schedule: Q01DX009 (ip), vehicle: saline with Tween-80
[11] = endpoint: mean survival time, dose: 400.0 mg/kg/injection, schedule: Q04DX003 (ip), vehicle: saline with Tween-80
[12] = endpoint: mean survival time, dose: 100.0 mg/kg/injection, schedule: Q01DX009 (ip), vehicle: Klucel (hydroxypropylcellulose) (HPC)
[13] = endpoint: mean survival time, dose: 200.0 mg/kg/injection, schedule: Q01DX009 (ip), vehicle: Klucel (hydroxypropylcellulose) (HPC)
[14] = endpoint: mean survival time, dose: 400.0 mg/kg/injection, schedule: Q01DX009 (ip), vehicle: Klucel (hydroxypropylcellulose) (HPC)
[15] = endpoint: mean survival time, dose: 50.0 mg/kg/injection, schedule: Q01DX009 (ip), vehicle: saline with Tween-80

Measured: T/C

CCN1C(=O)CSC1=S
inactive: endpoint: mean survival time, dose: 50.0 mg/kg/injection, schedule: Q01DX009 (ip), vehicle: other 88 % of control | endpoint: mean survival time, dose: 100.0 mg/kg/injection, schedule: Q01DX001 (ip), vehicle: other 94 % of control | endpoint: mean survival time, dose: 100.0 mg/kg/injection, schedule: Q01DX009 (ip), vehicle: other 108 % of control | [1] 95 % of control | endpoint: mean survival time, dose: 200.0 mg/kg/injection, schedule: Q01DX001 (ip), vehicle: other 93 % of control | endpoint: mean survival time, dose: 200.0 mg/kg/injection, schedule: Q01DX009 (ip), vehicle: other 95 % of control | [2] 93 % of control | endpoint: mean survival time, dose: 400.0 mg/kg/injection, schedule: Q01DX001 (ip), vehicle: other 91 % of control

O=c1[nH]cnc2snc(Cl)c12
inactive: endpoint: mean survival time, dose: 100.0 mg/kg/injection, schedule: Q01DX001 (ip), vehicle: saline with Tween-80 101 % of control | [3] 92 % of control | endpoint: mean survival time, dose: 200.0 mg/kg/injection, schedule: Q01DX001 (ip), vehicle: saline with Tween-80 101 % of control | [4] 92 % of control | endpoint: mean survival time, dose: 400.0 mg/kg/injection, schedule: Q01DX001 (ip), vehicle: saline with Tween-80 100 % of control | [5] 87 % of control

O=S(=O)(O)O.[NH-]CC(=O)O.[NH-]CC(=O)O.[NH-]CC(=O)O.[NH-]CC(=O)O.[Pt+2].[Pt+2]
inactive: endpoint: mean survival time, dose: 3.13 mg/kg/injection, schedule: Q04DX003 (ip), vehicle: distilled water + Tween-80 101 % of control | endpoint: mean survival time, dose: 6.25 mg/kg/injection, schedule: Q04DX003 (ip), vehicle: distilled water + Tween-80 104 % of control | endpoint: mean survival time, dose: 12.5 mg/kg/injection, schedule: Q04DX003 (ip), vehicle: distilled water + Tween-80 97 % of control | endpoint: mean survival time, dose: 25.0 mg/kg/injection, schedule: Q04DX003 (ip), vehicle: distilled water + Tween-80 112 % of control | endpoint: mean survival time, dose: 50.0 mg/kg/injection, schedule: Q04DX003 (ip), vehicle: distilled water + Tween-80 98 % of control

COC(=O)c1cccc(COc2ccc([N+](=O)[O-])cc2Cl)c1
inactive: [6] 98 % of control | [7] 101 % of control | [8] 96 % of control | [9] 100 % of control | [10] 95 % of control | [11] 100 % of control

CCCN1OC2CC/C=C\CCC2C1c1ccccc1 (stereo not given)
inactive: [12] 100 % of control | [1] 101 % of control | [13] 100 % of control | [2] 107 % of control | [14] 88 % of control | endpoint: mean survival time, dose: 400.0 mg/kg/injection, schedule: Q04DX003 (ip), vehicle: other 106 % of control

CC1(C)OC2C(C#N)OC(n3ccc(=O)[nH]c3=O)C2O1 (stereo not given)
inactive: endpoint: median survival time, dose: 21.88 mg/kg/injection, schedule: Q01DX005 (ip), vehicle: Klucel (hydroxypropylcellulose) (HPC) 101 % of control | endpoint: median survival time, dose: 43.75 mg/kg/injection, schedule: Q01DX005 (ip), vehicle: Klucel (hydroxypropylcellulose) (HPC) 102 % of control | endpoint: median survival time, dose: 87.5 mg/kg/injection, schedule: Q01DX005 (ip), vehicle: Klucel (hydroxypropylcellulose) (HPC) 98 % of control | endpoint: median survival time, dose: 175.0 mg/kg/injection, schedule: Q01DX005 (ip), vehicle: Klucel (hydroxypropylcellulose) (HPC) 102 % of control

CS(=O)(=O)OCCOS(C)(=O)=O
inactive: [6] 109 % of control | [7] 104 % of control | [8] 116 % of control | [9] 115 % of control | [11] 111 % of control

O=C(CNC(=O)Nc1cccc(C(F)(F)F)c1)N/N=C/c1cc(Br)ccc1O
inactive: [15] 96 % of control | [6] 88 % of control

O=C(NCCNC(=O)Nc1ccccc1Cl)Nc1ccccc1Cl
inactive: [3] 104 % of control | [4] 97 % of control | [5] 101 % of control

O=C(COc1ccccc1)N(/N=C/c1ccccc1)C(=O)c1ccccc1
inactive: [12] 96 % of control | endpoint: mean survival time, dose: 100.0 mg/kg/injection, schedule: Q04DX003 (ip), vehicle: Klucel (hydroxypropylcellulose) (HPC) 94 % of control | [13] 96 % of control | endpoint: mean survival time, dose: 200.0 mg/kg/injection, schedule: Q04DX003 (ip), vehicle: Klucel (hydroxypropylcellulose) (HPC) 92 % of control | [14] 89 % of control | endpoint: mean survival time, dose: 400.0 mg/kg/injection, schedule: Q04DX003 (ip), vehicle: Klucel (hydroxypropylcellulose) (HPC) 94 % of control

O=C(CO)c1ccc([N+](=O)[O-])cc1
inactive: endpoint: mean survival time, dose: 3.12 mg/kg/injection, schedule: Q01DX009 (ip), vehicle: saline with Tween-80 98 % of control and 101 % of control | endpoint: mean survival time, dose: 6.25 mg/kg/injection, schedule: Q01DX009 (ip), vehicle: saline with Tween-80 96 % of control and 101 % of control | endpoint: mean survival time, dose: 12.5 mg/kg/injection, schedule: Q01DX009 (ip), vehicle: saline with Tween-80 98 % of control and 101 % of control | endpoint: mean survival time, dose: 25.0 mg/kg/injection, schedule: Q01DX009 (ip), vehicle: saline with Tween-80 95 % of control and 96 % of control | [15] 101 % of control | [6] 95 % of control and 101 % of control

Cc1c(C(=O)c2no[n+]([O-])c2C(=O)c2c(C)c([N+](=O)[O-])c(C)c([N+](=O)[O-])c2C)c(C)c([N+](=O)[O-])c(C)c1[N+](=O)[O-]
inactive: [6] 87 % of control | [7] 102 % of control | [8] 96 % of control | [9] 88 % of control | [10] 88 % of control | [11] 98 % of control

Nc1nc(N)c2[nH]cnc2n1
inactive: endpoint: mean survival time, dose: 12.5 mg/kg/injection, schedule: Q01DX005 (ip), vehicle: Klucel (hydroxypropylcellulose) (HPC) 101 % of control | endpoint: mean survival time, dose: 25.0 mg/kg/injection, schedule: Q01DX005 (ip), vehicle: Klucel (hydroxypropylcellulose) (HPC) 101 % of control | endpoint: mean survival time, dose: 50.0 mg/kg/injection, schedule: Q01DX005 (ip), vehicle: Klucel (hydroxypropylcellulose) (HPC) 106 % of control | endpoint: mean survival time, dose: 50.0 mg/kg/injection, schedule: Q04DX003 (ip), vehicle: saline with Tween-80 95 % of control | endpoint: mean survival time, dose: 100.0 mg/kg/injection, schedule: Q01DX005 (ip), vehicle: Klucel (hydroxypropylcellulose) (HPC) 110 % of control | [7] 95 % of control | [9] 97 % of control | [11] 97 % of control

c1ccc(C2=NNC(c3ccccn3)=NN2)nc1
inactive: [6] 95 % of control | [7] 97 % of control | [8] 101 % of control | [9] 92 % of control | [10] 97 % of control | [11] 101 % of control

CSc1cc(C)[o+]c(C)c1
inactive: endpoint: mean survival time, dose: 12.5 mg/kg/injection, schedule: Q01DX009 (ip), vehicle: Klucel (hydroxypropylcellulose) (HPC) 94 % of control | endpoint: mean survival time, dose: 25.0 mg/kg/injection, schedule: Q01DX009 (ip), vehicle: Klucel (hydroxypropylcellulose) (HPC) 97 % of control | endpoint: mean survival time, dose: 50.0 mg/kg/injection, schedule: Q01DX009 (ip), vehicle: Klucel (hydroxypropylcellulose) (HPC) 108 % of control | [12] 113 % of control | [13] 117 % of control

Nc1nc(N)c(-c2cccc(Cl)c2)c(COc2ccc(NC(=O)Nc3cccc(S(=O)(=O)F)c3)cc2)n1
inactive: endpoint: mean survival time, dose: 37.5 mg/kg/injection, schedule: Q01DX001 (ip), vehicle: saline with Tween-80 100 % of control | endpoint: mean survival time, dose: 75.0 mg/kg/injection, schedule: Q01DX001 (ip), vehicle: saline with Tween-80 91 % of control | endpoint: mean survival time, dose: 150.0 mg/kg/injection, schedule: Q01DX001 (ip), vehicle: saline with Tween-80 92 % of control

CC(C(=O)c1ccccc1)C(c1ccccc1)P(=O)(c1ccccc1)c1ccccc1 (stereo not given)
inactive: [6] 102 % of control | [10] 104 % of control

C1c2nnnn2Cc2nnnn21
inactive: endpoint: mean survival time, dose: 12.5 mg/kg/injection, schedule: Q04DX002 (ip), vehicle: saline 96 % of control | endpoint: mean survival time, dose: 25.0 mg/kg/injection, schedule: Q04DX002 (ip), vehicle: saline 104 % of control | endpoint: mean survival time, dose: 50.0 mg/kg/injection, schedule: Q04DX002 (ip), vehicle: saline 93 % of control
